Experimental data: article PMC8237303 (Heliyon, 2021)

Key:
[1] = tested on: Glutamate receptor (NMDA agonist site); assay: [3H]-CGP-39653 binding assay; conditions: 0.1 mM l-menthol; Rat cerebral cortex
[2] = target: Neuropeptide Y1 receptor (Human) (Homo sapiens, UniProt P25929); assay: [125I]-Peptide YY; type: binding; conditions: 0.1 mM l-menthol; Human receptor (Non-recombinant)
[3] = target: Neuropeptide Y2 receptor (Human) (Homo sapiens, UniProt P49146); assay: [125I]-Peptide YY; type: binding; conditions: 0.1 mM l-menthol; Human receptor (Non-recombinant)
[4] = target: Vasopressin V1B receptor (Human) (Homo sapiens, UniProt P47901); assay: [3H]-Vasopressin, 8-L-Arginine binding assay; conditions: 0.1 mM l-menthol; Human recombinant
[5] = tested on: Bombesin receptor (Non-selective); assay: [125I]-Bombesin binding assay; conditions: 0.1 mM l-menthol; Rat whole brain
[6] = target: Dopamine transporter (Human) (Homo sapiens, UniProt Q01959); assay: [3H]-WIN35,428 binding assay
[7] = tested on: Glycine receptor (Strychnine sensitive); type: binding; conditions: 0.1 mM l-menthol; Rat spinal cord
GABA transporter = assay: gamma-[3H]-Aminobutyric Acid; type: binding; conditions: 0.1 mM l-menthol; Rat cerebral cortex; in the presence of isoguvacine hydrochloride and S (−)-baclofen hydrochloride
[8] = target: Serotonin 5HT3 receptor (Human) (Homo sapiens, UniProt P46098); assay: [3H]-GR65630 binding assay; conditions: 0.1 mM l-menthol; Human recombinant
K Channel KATP = assay: [3H]-Glybenclamide binding assay; conditions: 0.1 mM l-menthol; Rat whole brain
[9] = target: Opiate ORL1 receptor (Human) (Homo sapiens, UniProt P41146); assay: [3H]-Nociceptin binding assay; conditions: 0.1 mM l-menthol; Human recombinant
[10] = target: β1-Adrenergic receptor (Human) (Homo sapiens, UniProt P08588); assay: [3H]-; type: binding; conditions: 0.1 mM l-menthol; Human recombinant
Monoamine transporter = assay: [3H]-α-Dihydrotetrabenazine binding assay; conditions: 0.1 mM l-menthol; Rabbit platelet
[11] = target: Dopamine D4.2 receptor (Human) (Homo sapiens, UniProt P21917, DEL265-296); assay: [3H]-Spiperone binding assay; conditions: 0.1 mM l-menthol; Human recombinant
[12] = target: Serotonin transporter (Human) (Homo sapiens, UniProt P31645); assay: [3H]-Imipramine hydrochloride binding assay; conditions: 0.1 mM l-menthol; Human recombinant
[13] = target: Dopamine D2 receptor short isoform (Human) (Homo sapiens, UniProt P14416); assay: [3H]-Spiperone binding assay; conditions: 0.1 mM l-menthol; Human recombinant
[14] = target: Serotonin 5HT2A receptor (Human) (Homo sapiens, UniProt P28223); assay: [3H]-Ketanserin hydrochloride binding assay; conditions: 0.1 mM l-menthol; Human recombinant
[15] = target: Adenosine transporter (Human) (Homo sapiens, UniProt Q99808); assay: [3H]-S-; type: binding; conditions: 0.1 mM l-menthol; Human receptor
α1A-Adrenergic receptor = α1A-Adrenergic receptor (Rattus norvegicus, UniProt P43140); assay: [3H]-Prazosin binding assay; conditions: 0.1 mM l-menthol; Rat submandibular gland
[16] = target: α2A-Adrenergic receptor (Human) (Homo sapiens, UniProt P08913); assay: [3H]-Rauwolscine hydrochloride binding assay; conditions: 0.1 mM l-menthol; Human recombinant
VIP 1 receptor (Human) = VIP 1 receptor (Human) (Homo sapiens, UniProt P32241); assay: [125I]-Vasoactive Intestinal Polypeptide binding assay; conditions: 0.1 mM l-menthol; Human receptor (Non-recombinant)
α1B-Adrenergic receptor = α1B-Adrenergic receptor (Rattus norvegicus, UniProt P15823); assay: [3H]-Prazosin binding assay; conditions: 0.1 mM l-menthol; Rat liver
[17] = target: β2-Adrenergic receptor (Human) (Homo sapiens, UniProt P07550); assay: [3H]-; type: binding; conditions: 0.1 mM l-menthol; Human recombinant
[18] = target: Dopamine D3 receptor (Human) (Homo sapiens, UniProt P35462); assay: R-; type: binding; conditions: 0.1 mM l-menthol; Human recombinant
[19] = tested on: Glutamate receptor (NMDA phencycidine site); assay: [3H]-; type: binding; conditions: 0.1 mM l-menthol; Rat cerebral cortex
[20] = target: Melatonin MT1 receptor (Human) (Homo sapiens, UniProt P48039); assay: [125I]-Melatonin binding assay; conditions: 0.1 mM l-menthol; Human recombinant
[21] = tested on: GABA A receptor (Picrotoxin site); assay: [3H]-EBOB binding assay; set-up: species or system Rat
[22] = target: Muscarinic M4 receptor (Human) (Homo sapiens, UniProt P08173); assay: [3H]-Scopolamine Methyl Chloride binding assay; conditions: 0.1 mM l-menthol; Human recombinant
[23] = target: Angiotensin AT2 receptor (Human) (Homo sapiens, UniProt P50052); assay: [125I]-CGP-42112A binding assay; conditions: 0.1 mM l-menthol; Human recombinant
[24] = target: Muscarinic M5 receptor (Human) (Homo sapiens, UniProt P08912); assay: [3H]-Scopolamine Methyl Chloride binding assay; conditions: 0.1 mM l-menthol; Human recombinant
[25] = target: Muscarinic M1 receptor (Human) (Homo sapiens, UniProt P11229); assay: [3H]-Scopolamine Methyl Chloride binding assay; conditions: 0.1 mM l-menthol; Human recombinant
[26] = target: Opiate δ receptor (Human) (Homo sapiens, UniProt P41143); assay: [3H]-Naltrindole binding assay; conditions: 0.1 mM l-menthol; Human recombinant
[27] = target: Bradykinin B2 receptor (Human) (Homo sapiens, UniProt P30411); assay: [3H]-Bradykinin binding assay; conditions: 0.1 mM l-menthol; Human recombinant
[28] = target: Adenosine A2a receptor (Human) (Homo sapiens, UniProt P29274); assay: [3H]-CGS21680 binding assay; conditions: 0.1 mM l-menthol; Human recombinant
[29] = target: Neurokinin NK3 receptor (Human) (Homo sapiens, UniProt P29371); assay: [125I]-Neurokinin B; type: binding; conditions: 0.1 mM l-menthol; Human recombinant
[30] = tested on: Ca Channel (Type L, Dihydropyridine); assay: [3H]-PN200-110 binding assay; conditions: 0.1 mM l-menthol; Rat cerebral cortex
[31] = target: Bradykinin B1 receptor (Human) (Homo sapiens, UniProt P46663); assay: [3H]-Kallidin; type: binding; conditions: 0.1 mM l-menthol; Human recombinant
[32] = target: Glutamate receptor (NMDAglycine site) (Rattus norvegicus, UniProt P35439); assay: [3H]-MDL105,519 binding assay; conditions: 0.1 mM l-menthol; Rat cerebral cortex
[33] = tested on: GABA A receptor (Benzodiazepine site); assay: [3H]-Flunitrazepam binding assay; conditions: 0.1 mM l-menthol; Rat whole brain
[34] = target: Histamine H2 receptor (Human) (Homo sapiens, UniProt P25021); assay: [3H]-Tiotidine binding assay; conditions: 0.1 mM l-menthol; Human recombinant
Histamine H2 receptor (Human), sequence (P25021 whole entry): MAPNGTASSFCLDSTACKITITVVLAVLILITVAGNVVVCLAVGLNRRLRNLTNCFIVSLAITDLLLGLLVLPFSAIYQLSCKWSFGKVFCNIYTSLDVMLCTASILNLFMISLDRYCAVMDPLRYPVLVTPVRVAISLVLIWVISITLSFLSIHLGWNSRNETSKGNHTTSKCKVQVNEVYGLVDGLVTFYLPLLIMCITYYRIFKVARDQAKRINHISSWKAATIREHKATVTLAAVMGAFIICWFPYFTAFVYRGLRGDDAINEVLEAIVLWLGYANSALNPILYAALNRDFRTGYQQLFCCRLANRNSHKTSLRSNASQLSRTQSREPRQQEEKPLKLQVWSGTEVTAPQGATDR

Dopamine transporter (Human), sequence (Q01959 whole entry): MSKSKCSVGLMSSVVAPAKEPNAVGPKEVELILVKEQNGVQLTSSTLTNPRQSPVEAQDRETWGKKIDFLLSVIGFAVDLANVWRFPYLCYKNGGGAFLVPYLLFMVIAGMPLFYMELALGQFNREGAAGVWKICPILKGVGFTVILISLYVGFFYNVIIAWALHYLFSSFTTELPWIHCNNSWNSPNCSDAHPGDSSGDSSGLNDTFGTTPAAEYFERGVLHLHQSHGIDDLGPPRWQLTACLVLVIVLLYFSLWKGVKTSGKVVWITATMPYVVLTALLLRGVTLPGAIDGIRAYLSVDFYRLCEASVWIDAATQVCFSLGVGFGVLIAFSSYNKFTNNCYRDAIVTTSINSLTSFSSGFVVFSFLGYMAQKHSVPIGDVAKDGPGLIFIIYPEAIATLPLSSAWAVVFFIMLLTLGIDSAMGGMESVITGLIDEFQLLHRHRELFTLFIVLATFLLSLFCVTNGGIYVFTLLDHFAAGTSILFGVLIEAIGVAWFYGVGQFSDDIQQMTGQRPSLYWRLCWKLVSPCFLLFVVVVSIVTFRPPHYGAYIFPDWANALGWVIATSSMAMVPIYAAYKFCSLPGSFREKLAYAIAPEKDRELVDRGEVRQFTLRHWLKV
β1-Adrenergic receptor (Human), sequence (P08588 whole entry): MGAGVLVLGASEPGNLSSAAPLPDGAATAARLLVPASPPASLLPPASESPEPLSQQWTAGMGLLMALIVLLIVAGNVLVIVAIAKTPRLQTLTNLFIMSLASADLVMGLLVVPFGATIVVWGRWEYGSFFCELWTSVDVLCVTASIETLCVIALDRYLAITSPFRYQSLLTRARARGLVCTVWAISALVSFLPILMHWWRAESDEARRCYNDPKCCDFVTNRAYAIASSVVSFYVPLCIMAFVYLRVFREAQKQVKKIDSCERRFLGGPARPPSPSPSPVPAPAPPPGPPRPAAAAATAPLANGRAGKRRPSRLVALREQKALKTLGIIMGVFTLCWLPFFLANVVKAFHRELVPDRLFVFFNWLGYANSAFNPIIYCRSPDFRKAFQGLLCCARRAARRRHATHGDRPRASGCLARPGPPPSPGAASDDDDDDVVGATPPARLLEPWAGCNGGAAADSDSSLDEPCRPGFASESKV
Glutamate receptor (NMDAglycine site), sequence (P35439 394-800 limits assumed): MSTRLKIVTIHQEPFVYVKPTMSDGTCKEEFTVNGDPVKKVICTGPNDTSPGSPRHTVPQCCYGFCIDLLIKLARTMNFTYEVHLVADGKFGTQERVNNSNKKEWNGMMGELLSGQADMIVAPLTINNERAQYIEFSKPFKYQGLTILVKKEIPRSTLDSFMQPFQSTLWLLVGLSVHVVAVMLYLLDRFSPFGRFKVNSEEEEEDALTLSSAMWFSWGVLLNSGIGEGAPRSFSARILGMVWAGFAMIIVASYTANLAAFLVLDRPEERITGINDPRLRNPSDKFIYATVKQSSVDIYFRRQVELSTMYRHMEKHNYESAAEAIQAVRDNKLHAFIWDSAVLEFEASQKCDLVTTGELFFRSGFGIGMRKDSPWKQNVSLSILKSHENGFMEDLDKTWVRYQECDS
Opiate δ receptor (Human), sequence (P41143 whole entry): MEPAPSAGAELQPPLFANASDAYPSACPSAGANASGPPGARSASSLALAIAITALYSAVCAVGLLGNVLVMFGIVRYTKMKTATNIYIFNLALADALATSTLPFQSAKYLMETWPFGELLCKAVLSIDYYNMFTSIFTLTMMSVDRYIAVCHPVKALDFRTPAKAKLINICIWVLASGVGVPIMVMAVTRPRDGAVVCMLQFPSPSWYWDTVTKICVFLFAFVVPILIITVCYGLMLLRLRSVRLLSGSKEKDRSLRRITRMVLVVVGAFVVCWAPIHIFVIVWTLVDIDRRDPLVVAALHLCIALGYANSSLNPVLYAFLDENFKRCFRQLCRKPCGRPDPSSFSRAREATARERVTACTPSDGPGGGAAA
Serotonin transporter (Human), sequence (P31645 whole entry, canonical isoform): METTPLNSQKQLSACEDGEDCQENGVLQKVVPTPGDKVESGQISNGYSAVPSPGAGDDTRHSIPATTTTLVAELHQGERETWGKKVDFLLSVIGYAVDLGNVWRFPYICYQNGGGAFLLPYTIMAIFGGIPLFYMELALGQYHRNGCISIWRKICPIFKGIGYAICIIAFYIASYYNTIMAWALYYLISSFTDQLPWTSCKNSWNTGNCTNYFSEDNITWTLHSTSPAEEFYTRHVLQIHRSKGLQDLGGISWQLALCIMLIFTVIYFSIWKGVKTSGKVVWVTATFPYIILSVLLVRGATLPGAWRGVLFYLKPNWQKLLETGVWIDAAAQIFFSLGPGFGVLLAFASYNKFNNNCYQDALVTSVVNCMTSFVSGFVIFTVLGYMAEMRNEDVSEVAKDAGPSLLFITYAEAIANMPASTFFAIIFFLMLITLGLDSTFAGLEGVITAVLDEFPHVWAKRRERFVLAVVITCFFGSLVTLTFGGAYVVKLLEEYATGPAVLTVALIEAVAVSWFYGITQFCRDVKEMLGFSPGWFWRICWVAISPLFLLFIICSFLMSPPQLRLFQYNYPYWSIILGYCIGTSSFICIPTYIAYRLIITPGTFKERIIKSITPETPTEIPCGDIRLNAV
α2A-Adrenergic receptor (Human), sequence (P08913 whole entry): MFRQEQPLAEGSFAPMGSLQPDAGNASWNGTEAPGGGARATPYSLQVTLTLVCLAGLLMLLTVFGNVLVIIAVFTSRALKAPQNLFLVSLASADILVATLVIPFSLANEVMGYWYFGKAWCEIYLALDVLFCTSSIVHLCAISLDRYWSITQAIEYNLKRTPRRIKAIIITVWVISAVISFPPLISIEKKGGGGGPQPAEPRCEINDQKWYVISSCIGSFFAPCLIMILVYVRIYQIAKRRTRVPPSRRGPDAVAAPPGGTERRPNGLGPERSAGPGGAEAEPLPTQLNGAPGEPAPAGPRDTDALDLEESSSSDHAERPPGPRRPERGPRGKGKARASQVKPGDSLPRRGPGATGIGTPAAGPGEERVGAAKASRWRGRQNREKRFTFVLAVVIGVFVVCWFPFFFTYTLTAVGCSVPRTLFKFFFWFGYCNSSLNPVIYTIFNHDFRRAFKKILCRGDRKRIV
Adenosine transporter (Human), sequence (Q99808 whole entry): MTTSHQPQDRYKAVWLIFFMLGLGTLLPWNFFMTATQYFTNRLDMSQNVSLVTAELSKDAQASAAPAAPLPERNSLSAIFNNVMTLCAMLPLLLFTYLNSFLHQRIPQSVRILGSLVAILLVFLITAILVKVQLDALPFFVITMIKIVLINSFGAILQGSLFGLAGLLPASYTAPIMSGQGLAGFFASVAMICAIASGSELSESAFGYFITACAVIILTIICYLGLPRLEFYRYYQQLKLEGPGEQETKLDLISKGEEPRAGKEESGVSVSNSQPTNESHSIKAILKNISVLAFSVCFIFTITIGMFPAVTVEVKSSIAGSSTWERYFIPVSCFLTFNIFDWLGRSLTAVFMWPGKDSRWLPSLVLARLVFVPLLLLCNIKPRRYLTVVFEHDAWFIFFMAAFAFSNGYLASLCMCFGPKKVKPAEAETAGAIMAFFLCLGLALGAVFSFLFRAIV
Serotonin 5HT2A receptor (Human), sequence (P28223 whole entry): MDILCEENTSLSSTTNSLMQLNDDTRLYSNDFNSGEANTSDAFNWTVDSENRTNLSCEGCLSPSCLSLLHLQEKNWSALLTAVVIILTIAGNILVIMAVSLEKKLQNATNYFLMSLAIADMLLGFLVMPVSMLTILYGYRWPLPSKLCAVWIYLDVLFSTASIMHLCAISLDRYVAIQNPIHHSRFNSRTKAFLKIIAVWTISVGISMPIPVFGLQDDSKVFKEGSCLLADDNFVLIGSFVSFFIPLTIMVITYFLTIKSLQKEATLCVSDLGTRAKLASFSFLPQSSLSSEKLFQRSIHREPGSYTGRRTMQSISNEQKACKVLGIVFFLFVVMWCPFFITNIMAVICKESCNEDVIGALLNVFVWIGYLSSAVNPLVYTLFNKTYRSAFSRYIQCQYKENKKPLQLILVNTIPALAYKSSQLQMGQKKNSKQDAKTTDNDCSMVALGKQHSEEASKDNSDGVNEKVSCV
VIP 1 receptor (Human), sequence (P32241 31-457): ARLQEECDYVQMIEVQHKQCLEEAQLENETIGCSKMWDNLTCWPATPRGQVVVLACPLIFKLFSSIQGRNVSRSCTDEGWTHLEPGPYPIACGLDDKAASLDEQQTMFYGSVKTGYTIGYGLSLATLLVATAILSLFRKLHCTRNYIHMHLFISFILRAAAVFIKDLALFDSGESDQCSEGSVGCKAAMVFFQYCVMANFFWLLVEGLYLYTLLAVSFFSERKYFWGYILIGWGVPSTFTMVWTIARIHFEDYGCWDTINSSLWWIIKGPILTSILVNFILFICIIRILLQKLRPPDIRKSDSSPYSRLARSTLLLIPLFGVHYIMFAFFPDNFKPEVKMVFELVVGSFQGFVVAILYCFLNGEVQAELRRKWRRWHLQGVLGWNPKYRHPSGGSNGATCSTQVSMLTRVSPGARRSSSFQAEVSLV

## CC(C)[C@@H]1CC[C@@H](C)C[C@H]1O [l-menthol]
[1]
  Inhibition by l-Menthol (%): 0%
[2]
  Inhibition by l-Menthol (%): 0.86%
[3]
  Inhibition by l-Menthol (%): 0%
[4]
  Inhibition by l-Menthol (%): 0%
[5]
  Inhibition by l-Menthol (%): 21.87%
[6]
  Concentration dependence of inhibition of the [3H]-WIN35,428 binding: concentration-dependent
[6]; 0.1 mM l-menthol, Human recombinant
  Inhibition by l-Menthol (%): 20.67%
[6]; read-out: IC50 for inhibition of the [3H]-WIN35,428 binding, human recombinant dopamine transporter, 7 concentrations, duplicate
  IC50: 719 µM
[6]; read-out: Ki (mol/L), inhibition of the binding of [3H]-WIN35,428, Dopamine transporter (Human), Ki=IC50/(1+[L/Kd])
  Ki: 0.000615 mol/L
[7]
  Inhibition by l-Menthol (%): 0%
GABA transporter
  Inhibition by l-Menthol (%): 10.09%
[8]
  Inhibition by l-Menthol (%): 2.21%
K Channel KATP
  Inhibition by l-Menthol (%): 2.08%
[9]
  Inhibition by l-Menthol (%): 5.76%
[10]
  Inhibition by l-Menthol (%): 0%
Monoamine transporter
  Inhibition by l-Menthol (%): 7.73%
[11]
  Inhibition by l-Menthol (%): 28.19%
[12]
  Inhibition by l-Menthol (%): 0%
[13]
  Inhibition by l-Menthol (%): 0%
[14]
  Inhibition by l-Menthol (%): 8.32%
[15]
  Inhibition by l-Menthol (%): 0.68%
α1A-Adrenergic receptor
  Inhibition by l-Menthol (%): 5.13%
[16]
  Inhibition by l-Menthol (%): 11.34%
VIP 1 receptor (Human)
  Inhibition by l-Menthol (%): 2.48%
α1B-Adrenergic receptor
  Inhibition by l-Menthol (%): 1.76%
[17]
  Inhibition by l-Menthol (%): 0%
[18]
  Inhibition by l-Menthol (%): 6.32%
[19]
  Inhibition by l-Menthol (%): 1.27%
[20]
  Inhibition by l-Menthol (%): 5.74%
[21]
  Concentration dependence of inhibition of the [3H]-EBOB binding: concentration-dependent
[21]; 0.1 mM l-menthol, Rat cerebral cortex
  Inhibition by l-Menthol (%): 20.9%
[21]; read-out: IC50 for inhibition of the [3H]-EBOB binding, rat cerebral cortex preparation, 7 concentrations, duplicate
  IC50: 554 µM
[21]; read-out: Ki (mol/L), inhibition of the binding of [3H]-EBOB, GABAA (Picrotoxin site), Ki=IC50/(1+[L/Kd])
  Ki: 0.000288 mol/L
[22]
  Inhibition by l-Menthol (%): 0%
[23]
  Inhibition by l-Menthol (%): 0%
[24]
  Inhibition by l-Menthol (%): 0%
[25]
  Inhibition by l-Menthol (%): 0%
[26]
  Inhibition by l-Menthol (%): 0.3%
[27]
  Inhibition by l-Menthol (%): 7.88%
[28]
  Inhibition by l-Menthol (%): 21.62%
[29]
  Inhibition by l-Menthol (%): 4.65%
[30]
  Inhibition by l-Menthol (%): 1.17%
[31]
  Inhibition by l-Menthol (%): 6.03%
[32]
  Inhibition by l-Menthol (%): 2.56%
[33]
  Inhibition by l-Menthol (%): 1.37%
[34]
  Inhibition by l-Menthol (%): 21.17%
